# Data: EP0688331B1, “NEW SULFATED LYSO-GANGLIOSIDE DERIVATIVES” (FIDIA S.p.A., priority 1993, dated 1994)
# Where two headings read alike, the source gives them in different places.
# How the values were obtained:
# CD4 = target: T1, CD4 (Homo sapiens, UniProt P01730); test: Expression of the CD4 molecule in Molt 3 cells (flow cytofluorimetry with anti-CD4 mAb); assay type: cell-based; details: 60 minutes at 37° C
# T1 construct: 100% of Molt 3 cells express CD4; host or cells: Molt 3 cells (human acute lymphoblastic leukemia T-cell line)
# From the text: Molt 3 cells (American Type Culture Collection - Rockville, MD, USA) have been utilized, human tumoral cell lines derived from an acute lymphoblastic leukemia and formed by T lymphocytes expressing CD4 on their surface. Such a cell line was chosen due to the fact that it overlaps, as regards the expression of the CD4 molecule, human T lymphocytes obtained from peripheral blood. 100% of Molt 3 cells express CD4, whereas only part of human T lymphocytes from peripheral blood express CD4 in a proportion varying from subject to subject. The Molt 3 model has therefore the advantage of allowing a better experimental reliability.
# Molt 3 cells (1x10^6) have been incubated with different concentrations of Liga 179 (from 1 µg/ml to 500 µg/ml) for 60 minutes at 37° C in buffered saline (PBS), with or without Fetal Calf Serum (FCS). When utilized, FCS was added at a concentration of 5 or 10 part/percentage (vol/vol). Following the incubation and the subsequent washing the percentage of cells expressing CD4 has been measured by flow cytofluorimetry using a monoclonal, fluoresceinated (mAb), specific for CD4 (DAKO T4, Dakopatts, Glostrup, Denmark) and a cytofluorimeter (EPICS V, Coulter Electronics, Hialeah, Florida, USA). In Table 4 are reported the data concerning the percentage of Molt 3 cells that express CD4, following the incubation with the compound under examination at the different concentrations utilized.
# cerebellar granule cells [1] = details: read-out: ED50 (antineurotoxic activity); co-treatment with 100 µM glutamate, 30 minutes; MTT after 24 hours
# Method: Thus, dilutions have been performed at different concentrations in Locke's solution (154 mM NaCl, 5.6 mM KCl, 3.6 mM NaHCO3, 2.3 mM CaCl2, 5.6 mM glucose, 4.6 mM Hepes, pH 7.4). Concentrations from 100 µM to 5 µM have been tested.
# The cell culture medium was aspirated from the dishes (and properly stored). The dishes were washed (3x2 ml) with Locke's solution in the absence of Mg^2+. Then, 1.5 ml of Locke's solution (-Mg^2+) with or without 100 µM glutamate and with or without the compound to be tested were added. The incubation period lasted 30 minutes (37° C). Glutamate and the compound to be tested were then removed. The dishes were washed with Locke's solution in the presence of Mg^2+ (2x2 ml) and then incubated in the presence of the initial medium (properly stored) for 24 hours at 37° C in an incubator (5% CO2).
# At the end of the incubation cell viability measured by means of the MTT colorimetric test was evaluated (Mosmann T.: Rapid colorimetric assay for cellular growth and survival: application to proliferation and cytotoxicity assays. J Immunol. Meth. 65, 55-63, 1983 and modified according to Skaper S.D. et al.: Death of cultured hippocampal pyramidal neurons induced by pathological activation of N-methyl-D-aspartate receptors is reduced by monosialogangliosides. J. Pharm. and Exp. Ther. 259,1, 452-457, 1991). Data were expressed as ED50 (µM).
# [2] = system: Mouse neuroblastoma cells C1300, Neuro-2A clone; test: Neuritogenic activity (% of neurite-bearing cells under the optical microscope); assay type: cell-based; details: for EC50: neuroblastoma cells N2A, % of neurite-bearing cells, read-out: ED50 (µM) neuritogenic effect
# Method: Mouse neuroblastoma cells C1300, Neuro-2A clone (obtained from American Cell Type Culture Collection - Bethesda, Md) have been seeded at a density of 10,000 cells/well (24-Falcon) in tissue culture medium containing Dulbecco's modified Eagle medium (DMEM, Gibco), 10% fetal calf serum heat inactivated (FCS, lot 7201 Seromed), penicillin (100 units per ml, Irvine) and L-glutamine (2 mM, Sigma). Cells have been incubated at 37° C for 24 hr, then the medium was withdrawn and substituted with 350 µl of fresh culture medium with and without the compounds to be tested.
# The derivatives have been solubilized in chloroform/methanol (2/1) and then dried under a flow of nitrogen.
# For the different compounds, consecutive dilutions in tissue culture medium (concentrations from 50 µM to 5 µM) were performed.
# Culture dishes incubated with the tested compounds were analyzed under a phase contrast microscope (250x) : 9 optical fields were chosen with prefixed coordinates and photographed. Then, the total number of cells were counted, as well as the number of neurite-bearing cells (length at least double of the cell diameter) in blind on every picture. The percentage of neurite-bearing cells was determined following the counting of at least 100 cells, and the data were expressed by the respective ED50 (µM) (Facci L. et al.: Promotion of neuritogenesis in mouse neuroblastoma cells by exogenous ganglioside GM1. J. Neurochem. 229-305, 1984).
# cerebellar granule cells [3] = details: read-out: ED50 (antineurotoxic activity); 2 hrs pretreatment, then 100 µM glutamate 60 minutes; MTT after 24 hr
# Method: Primary cultures of cerebellar granule cells have been prepared from 8-day-old Sprague-Dawley rats.
# Neurons have been grown in 35 mm dishes for 11-13 days and kept in a humidified environment (95% air and 5% CO2) at 37° C. […] Glial proliferation was prevented by cytosine arabinofuranoside.
# Concentrations from 100 µM to 5 µM have been tested.
# The cell culture medium was aspirated from the dishes (and properly stored). The dishes were washed (3x2 ml) with Locke's solution, then the solutions (1.5 ml) containing the compound to be tested were added, and incubated for 2 hrs in incubator at 37° C (5% CO2).
# The treated cells were washed (3x2 ml) with Locke's solution + 10% fetal calf serum heat inactivated (without glutamic acid), then washed (3x2 ml) in Locke's solution in the absence of Mg^2+. […]
# At the end of the incubation the cell viability measured by using the MTT colorimetric test was evaluated (Mosmann T., Rapid colorimetric assay for cellular growth and survival: application to proliferation and cytotoxicity assays. J. Immunol. Meth. 65, 55-63, 1983 and modified according to Skaper S.D. et al.: Death of cultured hippocampal pyramidal neurons induced by pathological activation of N-methyl-Daspartate receptors is reduced by monosialogangliosides. J. Pharm. and Exp. Ther. 259, 1, 452-457, 1991). The data are expressed as ED50 (µM).
"% MOLT-3 cells expressing CD4 on the surface (CD4; 10 µg/ml, FCS 0 %, without compound 96.9) [%]","% MOLT-3 cells expressing CD4 on the surface (CD4; 50 µg/ml, FCS 0 %, without compound 96.9) [%]","% MOLT-3 cells expressing CD4 on the surface (CD4; 100 µg/ml, FCS 0 %, without compound 96.9) [%]","% MOLT-3 cells expressing CD4 on the surface (CD4; 100 µg/ml, FCS 5 %, without compound 98.6) [%]","% MOLT-3 cells expressing CD4 on the surface (CD4; 100 µg/ml, FCS 10 %, without compound 96.9) [%]","% MOLT-3 cells expressing CD4 on the surface (CD4; 200 µg/ml, FCS 5 %, without compound 98.6) [%]","% MOLT-3 cells expressing CD4 on the surface (CD4; 200 µg/ml, FCS 10 %, without compound 96.9) [%]","% MOLT-3 cells expressing CD4 on the surface (CD4; 500 µg/ml, FCS 5 %, without compound 98.6) [%]","% MOLT-3 cells expressing CD4 on the surface (CD4; 500 µg/ml, FCS 10 %, without compound 96.9) [%]",EC50 [2] [µM],Substance,EC50 (cerebellar granule cells [1]) [µM],% of neurite-bearing cells ([2]; dose of 25 µM),EC50 (cerebellar granule cells [3]) [µM]
0,0,0,15.5,86.5,0,14.6,0,0,–,O-SULFATED N'SULFO-N'-LYSO-GM1 [Liga 179],15,–,–
–,–,–,–,–,–,–,–,–,25,N-BENZENESULFONYL-LYSO GM1 [Liga 125],–,–,–
–,–,–,–,–,–,–,–,–,12,N-4-CHLOROBENZENESULFONYL-LYSOGM1 [Liga 123],–,about 48%,6
